Read-outs that look alike come from different tables or passages of the source.
Experiments:
[1] = tested on: Mia PaCa-2 cells; assay: Annexin V apoptosis assay/flow cytometry, Mia PaCa-2; type: cell-based, human; conditions: Mia PaCa-2, 1 µM, 48 h
Method: The apoptotic cells were detected using a method reported previously. […] In HPAC cells, a 1 µM concentration of FBA-TPQ increased the apoptotic index two-fold higher than that seen in control cells (P < 0.01). […] In the Mia PaCa-2 cells, FBA-TPQ at 1 µM led to a three-fold increase in apoptosis (P < 0.01).
Following a similar protocol as above, cells in early and late stages of apoptosis were detected using an Annexin V-FITC apoptosis detection kit from BioVision (Mountain View, CA, USA), according to the manufacturer’s protocol. For apoptosis experiments, 2–3 × 10^5 cells were exposed to the test compound (0, 0.1, 0.5 and 1.0 µM) and incubated for 48 h prior to analysis. Cells were collected and washed with serum-free media. Cells were then re-suspended in 500 µL of Annexin V binding buffer followed by addition of 5 µL of Annexin V-FITC and 5 µL of propidium iodide (PI). The samples were incubated in the dark for 5 min at room temperature and analyzed with a Becton Dickinson FACSCalibur instrument (Ex = 488 nm; Em = 530 nm). Cells that were positive for Annexin V-FITC alone (early apoptosis) and Annexin V-FITC and PI (late apoptosis) were counted. The apoptotic index was calculated against the untreated control cells.

[2] = Pharmacokinetics and tissue distribution in BALB/c mice; type: in vivo; conditions: for Vd: read-out: Vss
Method: To assess the disposition of FBA-TPQ in vivo, pharmacokinetic studies in BALB/c were conducted. The results of the mean plasma concentration-time curves of FBA-TPQ, and tissue concentration-time curves of FBA-TPQ, after intravenous or intraperitoneal injection in BALB/c mice are presented in Figure 5. Two-compartmental model (WinNonlin 6.0 Model 7, Pharsight Corporation: Mountain View, CA, USA, 2009) was used to analyze the data obtained following intravenous (iv) and intraperitoneal (ip) administration of the compound.
Female BALB/c (18–20 g) mice were purchased from Harlan Laboratories (Indianapolis, IN). All animals were fed with commercial diet and water ad libitum and were on an alternating 12 h light/dark cycle. The mice were randomly divided into groups of three, and were dosed either intravenously (5 mg/kg) or intraperitoneally (10 mg/kg) with FBA-TPQ in PEG 400: ethanol: saline (57.1%:14.3%:28.6%). Before dosing, and at 5, 15, 30, and 60 min, and 2, 4, 8, and 24 h after dosing, groups of animals (three/time point) were anesthetized, and blood was collected from the retro-orbital sinus into heparinized tubes. Plasma was obtained by centrifuging the blood samples at 14,000 rpm for 15 min. FBA-TPQ was then extracted from plasma and stored at −80 °C until analysis. The brain, heart, kidneys, liver, lungs, and spleen were also collected at the same time points during necropsy, blotted on Whatman No. 1 filter paper, trimmed of extraneous fat and connective tissue, weighed, and homogenized in phosphate-buffered saline. The resulting homogenates were stored at −80 °C until further processing and analysis.
The average FBA-TPQ concentrations in plasma and tissues at each of the time points following intravenous and intraperitoneal administrations were used for pharmacokinetic analyses using a one- or two-compartmental model, respectively. The following pharmacokinetic parameters were estimated using Phoenix WinNonlin 6.0 (Mountain View, CA, USA): area under the concentration-time curve (AUC, h·μg/mL), half-life (T½, h), maximum concentration (Cmax, μg/mL), time of the maximum concentration (Tmax, h), and clearance (CL, mL/h/kg), as applicable. Bioavailability (X) was calculated as X = [AUCip × doseiv]/[AUCiv × doseip].

[3] = female, mouse, brain, ip, 10 mg/kg
[4] = female, mouse, brain, iv, 5 mg/kg
[5] = female, mouse, heart, ip, 10 mg/kg
[6] = female, mouse, heart, iv, 5 mg/kg
[7] = female, mouse, kidneys, ip, 10 mg/kg
[8] = female, mouse, kidneys, iv, 5 mg/kg
[9] = female, mouse, liver, ip, 10 mg/kg
[10] = female, mouse, liver, iv, 5 mg/kg
[11] = female, mouse, lungs, ip, 10 mg/kg
[12] = female, mouse, lungs, iv, 5 mg/kg
[13] = female, mouse, plasma, ip, 10 mg/kg
[14] = female, mouse, plasma, iv, 5 mg/kg
[15] = female, mouse, spleen, ip, 10 mg/kg
[16] = female, mouse, spleen, iv, 5 mg/kg

Which results are given for `O=C1C(NCc2ccc(F)cc2)=CC2=NCCc3c[nH]c1c32` [FBA-TPQ, 7-(4-fluorobenzylamino)-1,3,4,8-tetrahydropyrrolo[4,3,2-de]quinolin-8(1H)-one]?
increase in apoptosis vs control cells [1]: three-fold; detectability in mouse plasma ([2]; 4 h after iv injection, 5 mg/kg): no longer detectable; Vss ([2]; brain, ip, 10 mg/kg): 4.10 mL/g; AUC [2, 3]: 62.3 ng·h/mL; half-life [2, 3]: 110 min; AUC [2, 4]: 138 ng·h/mL; half-life [2, 4]: 15.1 min; clearance ([2]; female, mouse, brain, iv, 5 mg/kg, read-out: Cl (converted)): 575 mL/min/kg; Vd [2, 4]: 18.7 L/kg; AUC [2, 5]: 2360 ng·h/mL; half-life [2, 5]: 32.5 min; AUC [2, 6]: 2000 ng·h/mL; half-life [2, 6]: 30.1 min; clearance ([2]; female, mouse, heart, iv, 5 mg/kg, read-out: Cl (converted)): 41.2 mL/min/kg; Vd [2, 6]: 1.77 L/kg; AUC [2, 7]: 14700 ng·h/mL; half-life [2, 7]: 94.8 min; AUC [2, 8]: 11500 ng·h/mL; half-life [2, 8]: 15.1 min; clearance ([2]; female, mouse, kidneys, iv, 5 mg/kg, read-out: Cl (converted)): 7.27 mL/min/kg; Vd [2, 8]: 0.491 L/kg; AUC [2, 9]: 1850 ng·h/mL; half-life [2, 9]: 7.62 min; AUC [2, 10]: 949 ng·h/mL; half-life [2, 10]: 30.6 min; clearance ([2]; female, mouse, liver, iv, 5 mg/kg, read-out: Cl (converted)): 78.3 mL/min/kg; Vd [2, 10]: 3.34 L/kg; AUC [2, 11]: 5710 ng·h/mL; half-life [2, 11]: 21.8 min; AUC [2, 12]: 4020 ng·h/mL; half-life [2, 12]: 30.1 min; clearance ([2]; female, mouse, lungs, iv, 5 mg/kg, read-out: Cl (converted)): 20.6 mL/min/kg; Vd [2, 12]: 7.79 L/kg; bioavailability ([2]; female, mouse, plasma, intraperitoneal, based on AUC values, ip 10 mg/kg vs iv 5 mg/kg): 28.9%; AUC [2, 13]: 338 ng·h/mL; half-life [2, 13]: 13.1 min; concentration at 5 min ([2]; female, mouse, plasma, ip, 10 mg/kg, at 5 min): 542 ng/mL; concentration at 2 h ([2]; female, mouse, plasma, ip, 10 mg/kg, at 2 h): 40.2 ng/mL; AUC [2, 14]: 583 ng·h/mL; half-life [2, 14]: 14.9 min; Vd [2, 14]: 18.7 L/kg; clearance ([2]; female, mouse, plasma, single bolus iv dose 5 mg/kg, read-out: clearance rate (converted)): 141 mL/min/kg; AUC [2, 15]: 6500 ng·h/mL; half-life [2, 15]: 104 min; AUC [2, 16]: 2330 ng·h/mL; half-life [2, 16]: 4.86 min; clearance ([2]; female, mouse, spleen, iv, 5 mg/kg, read-out: Cl (converted)): 33 mL/min/kg; Vd [2, 16]: 1.27 L/kg; Cl ([2]; heart, ip, 10 mg/kg): 64.2 mL/min/kg; Vss ([2]; heart, ip, 10 mg/kg): 2.19 mL/g; order of highest overall tissue concentrations ([2]; ip, 10 mg/kg): kidneys > spleen > lungs > liver > heart > brain; concentration in plasma ([2]; ip, 10 mg/kg, 4 h after administration): undetectable levels; order of highest overall concentrations in the tissues examined ([2]; iv, 5 mg/kg): kidneys > lungs > heart > spleen > plasma ≈ liver > brain; Cl ([2]; kidneys, ip, 10 mg/kg): 13.7 mL/min/kg; Vss ([2]; kidneys, ip, 10 mg/kg): 0.801 mL/g; Cl ([2]; liver, ip, 10 mg/kg): 64.2 mL/min/kg; Cl ([2]; lungs, ip, 10 mg/kg): 31.3 mL/min/kg; Vss ([2]; lungs, ip, 10 mg/kg): 10.32 mL/g; Cl ([2]; plasma, ip, 10 mg/kg): 330 mL/min/kg; Vss ([2]; plasma, ip, 10 mg/kg): 21.8 mL/g; Cl ([2]; plasma, iv, 5 mg/kg): 141 mL/min/kg; Cl ([2]; spleen, ip, 10 mg/kg): 15.5 mL/min/kg; Vss ([2]; spleen, ip, 10 mg/kg): 0.78 mL/g

Reference: PMC3397457, “Preclinical Evaluation of Anticancer Efficacy and Pharmacological Properties of FBA-TPQ, a Novel Synthetic Makaluvamine Analog” (Marine Drugs, 2012)
